Measurements from ChEMBL document CHEMBL1221272, “Discovery and structure-activity relationships of a series of pyroglutamic acid amide antagonists of the P2X7 receptor” (Bioorg Med Chem Lett, 2010).
pIC50: −log10 of the molar value. Values after ≈ are worked out from the molar mass of the structure shown. Blank lines part the entries; values can stand above or below the compound they belong to. Active and inactive are the calls of the source. No cut-off for these calls is given here.

Legend:
P2X purinoceptor 7 [1] = target: T1, P2X purinoceptor 7 (Homo sapiens, UniProt Q99572); test: Inhibition of human P2X7 receptor by ethidium bromide release assay
T1 sequence (Q99572 whole entry): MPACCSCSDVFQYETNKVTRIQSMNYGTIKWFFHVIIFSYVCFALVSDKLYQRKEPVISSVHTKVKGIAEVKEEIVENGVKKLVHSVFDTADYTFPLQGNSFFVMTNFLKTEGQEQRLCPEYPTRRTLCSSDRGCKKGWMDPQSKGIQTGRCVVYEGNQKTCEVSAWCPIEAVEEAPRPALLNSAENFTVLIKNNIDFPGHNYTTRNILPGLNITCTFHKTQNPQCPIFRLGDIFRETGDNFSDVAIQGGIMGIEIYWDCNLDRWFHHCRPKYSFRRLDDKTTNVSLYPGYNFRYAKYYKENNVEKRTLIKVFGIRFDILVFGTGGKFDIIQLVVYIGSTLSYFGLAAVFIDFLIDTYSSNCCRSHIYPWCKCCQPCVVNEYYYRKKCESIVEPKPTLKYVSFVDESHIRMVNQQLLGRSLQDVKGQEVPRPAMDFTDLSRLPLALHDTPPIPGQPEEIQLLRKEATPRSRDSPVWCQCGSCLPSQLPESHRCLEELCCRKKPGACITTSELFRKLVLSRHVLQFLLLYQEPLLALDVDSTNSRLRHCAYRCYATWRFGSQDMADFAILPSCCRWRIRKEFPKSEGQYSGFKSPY

Rattus norvegicus [2] = test: Antiinflammatory activity in rat assessed as inhibition of FCA-induced hypersensitivity at 20 and 50 mg/kg, po bid for 5 days; type: functional, organism-based; set-up: dose 50 mg/kg
Liver microsomes [3] = test: Intrinsic clearance in rat liver microsome; type: ADME
[4] = Lipophilicity, log D of the compound at pH 7.4; type: physicochemical; conditions: buffer
[5] = Oral bioavailability in rat at 3 mg/kg for 1 hrs; type: ADME, organism-based; conditions: in vivo
P2X purinoceptor 7 [6] = target: T2, P2X purinoceptor 7 (Rattus norvegicus, UniProt Q64663); test: Inhibition of rat P2X7 receptor by ethidium bromide release assay
T2 sequence (Q64663 whole entry): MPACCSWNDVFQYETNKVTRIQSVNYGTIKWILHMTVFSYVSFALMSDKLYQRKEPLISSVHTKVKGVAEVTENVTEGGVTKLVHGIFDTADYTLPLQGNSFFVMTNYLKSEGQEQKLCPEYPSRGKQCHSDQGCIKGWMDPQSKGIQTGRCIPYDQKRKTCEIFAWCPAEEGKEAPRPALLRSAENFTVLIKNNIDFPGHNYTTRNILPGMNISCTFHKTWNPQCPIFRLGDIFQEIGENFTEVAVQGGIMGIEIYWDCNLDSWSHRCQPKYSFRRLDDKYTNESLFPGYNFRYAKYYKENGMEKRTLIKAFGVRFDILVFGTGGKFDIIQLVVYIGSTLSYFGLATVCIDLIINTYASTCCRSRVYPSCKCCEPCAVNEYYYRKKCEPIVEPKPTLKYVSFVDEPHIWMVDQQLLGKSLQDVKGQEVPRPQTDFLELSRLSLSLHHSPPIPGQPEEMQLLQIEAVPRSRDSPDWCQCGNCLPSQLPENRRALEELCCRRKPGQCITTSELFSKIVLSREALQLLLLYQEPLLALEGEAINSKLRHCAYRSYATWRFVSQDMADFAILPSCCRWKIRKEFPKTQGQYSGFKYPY

[7] = Cmax in rat at 3 mg/kg, po for 1 hrs; type: ADME, organism-based; set-up: dose 3 mg/kg, route oral; conditions: in vivo
Rattus norvegicus [8] = test: AUC in rat at 3 mg/kg, po for 1 hrs; type: ADME, organism-based, Plasma; set-up: dose 3 mg/kg, route oral; conditions: in vivo
[9] = Drug level in brain of rat chronic constriction injury model at 20 mg/kg, po bid for 8 days measured on last day; type: ADME, organism-based; set-up: dose 20 mg/kg, route oral
[10] = Tmax in rat at 3 mg/kg, po for 1 hrs; type: ADME, organism-based; set-up: dose 3 mg/kg, route oral; conditions: in vivo
[11] = Half life in rat at 1 mg/kg, iv for 1 hrs; type: ADME, organism-based; set-up: dose 1 mg/kg, route intravenous; conditions: in vivo
Liver microsomes [12] = test: Intrinsic clearance in human liver microsome; type: ADME
Rattus norvegicus [13] = test: Antiallodynic activity in rat chronic constriction injury model assessed as nerve injury-induced allodynia at 20 mg/kg, po bid measured post dose on day 1 of 8 days treatment; type: functional, organism-based; set-up: dose 20 mg/kg
[14] = Solubility of the compound; type: physicochemical
[15] = Blood clearance in rat at 1 mg/kg, iv for 1 hrs; type: ADME, organism-based; set-up: dose 1 mg/kg, route intravenous
[16] = Volume of distribution at steady state in rat at 1 mg/kg, iv for 1 hrs; type: ADME, organism-based; set-up: dose 1 mg/kg, route intravenous; conditions: in vivo, read-out: Vdss
Rattus norvegicus [17] = test: Antiallodynic activity in rat chronic constriction injury model assessed as nerve injury-induced allodynia at 20 mg/kg, po bid measured post dose on day 1 of 8 days treatment
[18] = Drug level in plasma of rat chronic constriction injury model at 20 mg/kg, po bid for 8 days measured on last day; type: ADME, organism-based; set-up: dose 20 mg/kg, route oral
Brain = test: Drug level in rat brain at 50 mg/kg, po; type: ADME, organism-based; set-up: dose 50 mg/kg, route oral; conditions: in vivo, read-out: Drug uptake
Plasma = test: Drug level in rat plasma at 50 mg/kg, po; type: ADME, organism-based; set-up: dose 50 mg/kg, route oral; conditions: in vivo, read-out: Drug uptake

SMILES: CCN1C(=O)CC[C@H]1C(=O)NCc1ccccc1OC
pIC50 (P2X purinoceptor 7 [1]): > 6.00

SMILES: Cc1ccc(-c2cc(C(F)(F)F)nn2-c2ccc(S(N)(=O)=O)cc2)cc1
Activity (Rattus norvegicus [2]): inactive

SMILES: O=C(NCc1ccc(F)cc1Cl)[C@@H]1CCC(=O)N1c1ccccc1
pIC50 (P2X purinoceptor 7 [1]): 6.10

SMILES: O=C(NCc1ccc(F)cc1Cl)[C@@H]1CCC(=O)N1C1CCC1
CL (Liver microsomes [3]): 2.3 mL/min/g

SMILES: CCN1C(=O)CC[C@H]1C(=O)NCc1ccccc1
pIC50 (P2X purinoceptor 7 [1]): > 6.00

SMILES: CCN1C(=O)CC[C@H]1C(=O)NCC1CCCCC1
pIC50 (P2X purinoceptor 7 [1]): > 6.00

SMILES: CCN1CCC[C@H]1C(=O)NCc1ccc(F)cc1Cl
pIC50 (P2X purinoceptor 7 [1]): > 6.00

SMILES: Cc1nn(-c2ccccc2)c(C)c1CC(=O)NCc1ccc(F)cc1Cl
logD [4]: 3.4
CL (Liver microsomes [3]): 46 mL/min/g

SMILES: Cc1n[nH]c(C)c1CC(=O)NCc1ccc(Cl)cc1Cl
logD [4]: 2.7
CL (Liver microsomes [3]): 1.3 mL/min/g

SMILES: O=C1CC[C@@H](C(=O)NCc2ccc(F)cc2Cl)N1
pIC50 (P2X purinoceptor 7 [1]): > 6.00

SMILES: CN(Cc1ccc(Cl)cc1Cl)C(=O)[C@@H]1CCC(=O)N1C
pIC50 (P2X purinoceptor 7 [1]): > 6.00

Further compounds by rising pIC50 (P2X purinoceptor 7 [1]), results first:

pIC50 (P2X purinoceptor 7 [1]): 6.20
SMILES: CCN1C(=O)CC[C@H]1C(=O)NCc1ccccc1C(F)(F)F

pIC50 (P2X purinoceptor 7 [1]): 6.20
SMILES: CCN1C(=O)CC[C@H]1C(=O)NCc1ccc(Cl)cc1

pIC50 (P2X purinoceptor 7 [1]): 6.20
SMILES: CCN1C(=O)CC[C@H]1C(=O)NCc1ccccc1Cl

pIC50 (P2X purinoceptor 7 [1]): 6.30
SMILES: O=C(NCc1ccc(F)cc1Cl)[C@@H]1CCC(=O)N1C1CCCC1

pIC50 (P2X purinoceptor 7 [1]): 6.40
SMILES: CC(C)CN1C(=O)CC[C@H]1C(=O)NCc1ccc(F)cc1Cl

pIC50 (P2X purinoceptor 7 [6]): < 5.00
pIC50 (P2X purinoceptor 7 [1]): 6.50
logD [4]: 2.6
SMILES: CC(C)N1C(=O)CCC1C(=O)NCc1ccc(F)cc1Cl (stereo not drawn)

pIC50 (P2X purinoceptor 7 [1]): 6.80
SMILES: CCCN1C(=O)CC[C@H]1C(=O)NCc1ccc(F)cc1Cl

pIC50 (P2X purinoceptor 7 [1]): 6.80
SMILES: CCN1C(=O)CC[C@@H]1C(=O)NCc1ccc(F)cc1Cl

pIC50 (P2X purinoceptor 7 [6]): 6.50
pIC50 (P2X purinoceptor 7 [1]): 6.90
logD [4]: 4.4
CL (Liver microsomes [3]): > 50 mL/min/g
SMILES: CN(C(=O)c1cc(Cl)c(=O)n(Cc2c(Cl)cccc2Cl)c1)c1ccccc1

pIC50 (P2X purinoceptor 7 [1]): 7.00
SMILES: CN1C(=O)CC[C@H]1C(=O)NCc1ccc(F)cc1Cl

pIC50 (P2X purinoceptor 7 [1]): 7.00
SMILES: CC(=O)N1CCC[C@H]1C(=O)NCc1ccc(F)cc1Cl

pIC50 (P2X purinoceptor 7 [1]): 7.00
SMILES: CCN1C(=O)CC[C@H]1C(=O)NCc1cccc(C(F)(F)F)c1

pIC50 (P2X purinoceptor 7 [6]): 5.80
pIC50 (P2X purinoceptor 7 [1]): 7.00
SMILES: CC(C)N1C(=O)CC[C@H]1C(=O)NCc1ccc(F)cc1Cl

pIC50 (P2X purinoceptor 7 [1]): 7.10
SMILES: CCN1C(=O)CC[C@H]1C(=O)NCC12CC3CC(CC(C3)C1)C2

pIC50 (P2X purinoceptor 7 [1]): 7.50
CL (Liver microsomes [3]): < 0.5 mL/min/g
SMILES: CCN1C(=O)CC[C@H]1C(=O)NCc1ccc(F)cc1Cl

bioavailability [5]: 65%
pIC50 (P2X purinoceptor 7 [6]): 6.50
Cmax [7]: 2.45 µM
AUC (Rattus norvegicus [8]): 73 kg·min/L
Tmax [10]: 1 h
half-life [11]: 1.5 h
pIC50 (P2X purinoceptor 7 [1]): 8.50
CL (Liver microsomes [12]): < 0.5 mL/min/g
logD [4]: 1.9
solubility [14]: 970 µg/mL (≈ 2900 µM)
clearance [15]: 9 mL/min/kg
Vd [16]: 1.1 L/kg
concentration (Brain): 26.7 µM
concentration (Plasma): 12.9 µM
SMILES: CN1C(=O)CC[C@H]1C(=O)NCc1cccc(C(F)(F)F)c1Cl [GSK1482160]
concentration at 192 h [9]: 3.36 µM
Activity (Rattus norvegicus [13]): Active
Activity (Rattus norvegicus [17]): Active
concentration at 192 h [18]: 5.91 µM
